The source of these data is patent publication US20250340570A1, “COMPOSITIONS USEFUL FOR MODULATING SPLICING” (Skyhawk Therapeutics, Inc., priority 2022, published 2025).

One test relates to total ATXN3 protein. Briefly: ATXN3 total protein assay (Mesoscale Discovery). In kind it is cell-based. The conditions noted are these: Human neuroblastoma SK-N-MC cells, 48 hours incubation, MSD assay. The protocol: Human neuroblastoma SK-N-MC cells were seeded at 10,000 cells/well in 384 well plates one day prior to compound treatment. The concentrations of compounds were tested at appropriate doses ranging from 30 µM to 0.6 nM. After incubation for 48 hours, the cells were lysed with 25.L of lysis buffer containing protease inhibitors, and total ATXN3 protein levels were assessed by Mesoscale Discovery (MSD) assay developed with one pair of and-ATXN3 antibodies. The capture and detect antibodies were raised in mouse and rabbit respectively. Anti-rabbit MSD-ST antibody was used for secondary antibody.
ATXN3 recombinant protein was used for standards. The readouts were captured with 35.L of MSD read buffer and multi-array 384-well high binding plates.

In test [1] the test system is ATXN3 transcripts containing exon 4. Put plainly: ATXN3 quantitative splicing assay (qPCR, E4E5 transcripts containing exon 4). In kind it is cell-based. The conditions noted are these: Human neuroblastoma SK-N-MC cells, 24 h treatment, qPCR primers/probe E4E5. On the procedure:
Human neuroblastoma SK-N-MC cells were plated in 384-well plates at 20,000 cells/well. Twenty-four hours after plating, cells were treated with compounds for 24 h at appropriate concentrations ranging from 30 μM to 0.6 nM (0.3% DMSO). Treated cells were lysed in 15 μL of lysis buffer, and cDNA was synthesized using the Fast Advanced Cells-to-Ct kit. Two μL of each cDNA was used in qPCR reactions to confirm the exon 4 skipped transcripts of ATXN3. A second set of primers/probe E4E5 was used to detect the transcripts containing exon 4. The third set of primers/probe E8E9 was used to detect total gene level of ATXN3. The qPCR reactions were prepared in 384-well plates in 10.L volume, using TaqMan™ Fast Advanced Master Mix with primers and probes shown in the table below. Reactions were run in a Quant Studio 6 qPCR instrument with default settings.
The primers and probes are listed below in Table 5.

A word on the IC50: it is the concentration that inhibits the measured activity by half. Low values mean greater potency in that assay, high ones weaker potency in that assay. `N[C@H](Cc1sc2c(NCc3cccs3)snc2c1Cl)CC(F)(F)F` [Compound 38, 7-[(S)-2-amino-4,4,4-trifluorobutyl]-8-chloro-4-thenylamino-3,6-dithia-2-azabicyclo[3.3.0]octa-1,4,7-triene]: the IC50 (in the test on total ATXN3 protein; in test [1]) was 501 to 5000 nM each time.
In the case of `N[C@H](Cc1sc2c(NCc3cccs3)snc2c1Br)CC(F)(F)F` [Compound 39, 7-[(S)-2-amino-4,4,4-trifluorobutyl]-8-bromo-4-thenylamino-3,6-dithia-2-azabicyclo[3.3.0]octa-1,4,7-triene], the half-maximal inhibitory concentration (IC50) (in the test on total ATXN3 protein; in test [1]) was 501 to 5000 nM in each case.
As to `N[C@H](Cc1sc2c(NCc3ccco3)snc2c1Cl)CC(F)(F)F` [Compound 40, 7-[(S)-2-amino-4,4,4-trifluorobutyl]-8-chloro-4-(furfurylamino)-3,6-dithia-2-azabicyclo[3.3.0]octa-1,4,7-triene], the IC50 (with total ATXN3 protein; in test [1]) was 501 to 5000 nM in each case.
Regarding `N[C@H](Cc1sc2c(NCc3ccco3)snc2c1Br)CC(F)(F)F` [Compound 41, 7-[(S)-2-amino-4,4,4-trifluorobutyl]-8-bromo-4-(furfurylamino)-3,6-dithia-2-azabicyclo[3.3.0]octa-1,4,7-triene], the half-inhibitory concentration (IC50) (with total ATXN3 protein; in test [1]) was 501 to 5000 nM in each case.
Take `N[C@H](Cc1sc2c(NCc3cccs3)snc2c1Cl)C(F)F` [Compound 42, 7-[(R)-2-amino-3,3-difluoropropyl]-8-chloro-4-thenylamino-3,6-dithia-2-azabicyclo[3.3.0]octa-1,4,7-triene]: the half-maximal inhibitory concentration (IC50) (in the test with total ATXN3 protein; in test [1]) was 501 to 5000 nM throughout.
As to `N[C@@H](CO)Cc1sc2c(NCc3cccs3)snc2c1Cl` [Compound 43, (R)-2-amino-3-(8-chloro-4-thenylamino-3,6-dithia-2-azabicyclo[3.3.0]octa-1,4,7-trien-7-yl)-1-propanol], the IC50 in the test with total ATXN3 protein fell in the range of 101 to 500 nM; in test [1], 501 to 5000 nM.
The matching figures for `COC[C@H](N)Cc1sc2c(NCc3cccs3)snc2c1Cl` [Compound 44, 7-[(R)-2-amino-3-methoxypropyl]-8-chloro-4-thenylamino-3,6-dithia-2-azabicyclo[3.3.0]octa-1,4,7-triene]: 501 to 5000 nM and 5000 to 10000 nM.
For `Cc1c(CCCN)sc2c(NCc3cccs3)snc12` [Compound 45, 7-(3-aminopropyl)-8-methyl-4-thenylamino-3,6-dithia-2-azabicyclo[3.3.0]octa-1,4,7-triene] the same measures were 10000 to 40000 nM and 10000 to 40000 nM.
For `N[C@@H](CO)Cc1sc2c(NCc3ccco3)snc2c1Cl` [Compound 46, (R)-2-amino-3-{8-chloro-4-(furfurylamino)-3,6-dithia-2-azabicyclo[3.3.0]octa-1,4,7-trien-7-yl}-1-propanol] the same measures were 101 to 500 nM and 101 to 500 nM.
As to `N[C@@H](CF)Cc1sc2c(NCc3cccs3)snc2c1Cl` [Compound 47, 7-[(R)-2-amino-3-fluoropropyl]-8-chloro-4-thenylamino-3,6-dithia-2-azabicyclo[3.3.0]octa-1,4,7-triene], the IC50 (with total ATXN3 protein; in test [1]) was 101 to 500 nM in each case.
Consider `N[C@@H](CF)Cc1sc2c(NCc3ccco3)snc2c1Cl` [Compound 48, 7-[(R)-2-amino-3-fluoropropyl]-8-chloro-4-(furfurylamino)-3,6-dithia-2-azabicyclo[3.3.0]octa-1,4,7-triene], for which the half-maximal inhibitory concentration (IC50) (with total ATXN3 protein; in test [1]) was 101 to 500 nM each time.
Turning to `N[C@H](Cc1sc2c(NCc3cccs3)snc2c1Br)CC1CC1` [Compound 49, 7-[(S)-2-amino-3-cyclopropylpropyl]-8-bromo-4-thenylamino-3,6-dithia-2-azabicyclo[3.3.0]octa-1,4,7-triene], the IC50 (with total ATXN3 protein; in test [1]) was 501 to 5000 nM each time.
Regarding `N[C@H](Cc1sc2c(NCc3cccs3)snc2c1Cl)C1CC(F)(F)C1` [Compound 53, 7-[(R)-2-amino-2-(3,3-difluorocyclobutyl)eth-yl]-8-chloro-4-thenylamino-3,6-dithia-2-azabicyclo[3.3.0]octa-1,4,7-triene], the IC50 (in the test on total ATXN3 protein; in test [1]) was 501 to 5000 nM in each case.
Take `C#C[C@H](N)Cc1sc2c(NCc3cccs3)snc2c1C` [Compound 54, 7-[(R)-2-amino-3-butynyl]-8-methyl-4-thenylamino-3,6-dithia-2-azabicyclo[3.3.0]octa-1,4,7-triene]: the IC50 (in the test on total ATXN3 protein; in test [1]) was 501 to 5000 nM throughout.
As to `CC#C[C@H](N)Cc1sc2c(NCc3cccs3)snc2c1C` [Compound 55, 7-[(R)-2-amino-3-pentynyl]-8-methyl-4-thenylamino-3,6-dithia-2-azabicyclo[3.3.0]octa-1,4,7-triene], the IC50 (with total ATXN3 protein; in test [1]) was 10000 to 40000 nM in each case.
With `N[C@H](Cc1sc2c(NCc3ccco3)snc2c1Cl)CC1CC1` [Compound 57, 7-[(S)-2-amino-3-cyclopropylpropyl]-8-chloro-4-(furfurylamino)-3,6-dithia-2-azabicyclo[3.3.0]octa-1,4,7-triene], the half-maximal inhibitory concentration (IC50) in the test on total ATXN3 protein is 501 to 5000 nM; in test [1], 101 to 500 nM.
The matching figures for `N[C@H](Cc1sc2c(NCc3cccs3)snc2c1Cl)CC1CC1` [Compound 58, 7-[(S)-2-amino-3-cyclopropylpropyl]-8-chloro-4-thenylamino-3,6-dithia-2-azabicyclo[3.3.0]octa-1,4,7-triene]: 501 to 5000 nM and 501 to 5000 nM.
For `N[C@@H](CO)Cc1sc2c(NCc3cccs3)snc2c1Br` [Compound 59, (R)-2-amino-3-(8-bromo-4-thenylamino-3,6-dithia-2-azabicyclo[3.3.0]octa-1,4,7-trien-7-yl)-1-propanol] the same measures were 101 to 500 nM and 101 to 500 nM.
The matching figures for `N[C@@H](CO)Cc1sc2c(NCc3ccco3)snc2c1Br` [Compound 60, (R)-2-amino-3-{8-bromo-4-(furfurylamino)-3,6-dithia-2-azabicyclo[3.3.0]octa-1,4,7-trien-7-yl}-1-propanol]: 0.01 to 100 nM and 0.01 to 100 nM.
As for `N[C@H](Cc1sc2c(NCc3ccco3)snc2c1Br)CC1CC1` [Compound 61, 7-[(S)-2-amino-3-cyclopropylpropyl]-8-bromo-4-(furfurylamino)-3,6-dithia-2-azabicyclo[3.3.0]octa-1,4,7-triene], the IC50 (in the test with total ATXN3 protein; in test [1]) was 101 to 500 nM each time.
On to `COC[C@H](N)Cc1sc2c(NCc3cccs3)snc2c1Br` [Compound 62, 7-[(R)-2-amino-3-methoxypropyl]-8-bromo-4-thenylamino-3,6-dithia-2-azabicyclo[3.3.0]octa-1,4,7-triene], for which the figures for the concentration for half-maximal inhibition (IC50) (in the test with total ATXN3 protein; in test [1]) were 501 to 5000 nM and 101 to 500 nM, respectively.
The matching figures for `COC[C@H](N)Cc1sc2c(NCc3ccco3)snc2c1Br` [Compound 63, 7-[(R)-2-amino-3-methoxypropyl]-8-bromo-4-(furfurylamino)-3,6-dithia-2-azabicyclo[3.3.0]octa-1,4,7-triene]: 101 to 500 nM and 101 to 500 nM.
For `COC[C@H](N)Cc1sc2c(NCc3cccs3)snc2c1C` [Compound 64, 7-[(R)-2-amino-3-methoxypropyl]-8-methyl-4-thenylamino-3,6-dithia-2-azabicyclo[3.3.0]octa-1,4,7-triene] the same measures were 501 to 5000 nM and 501 to 5000 nM.
For `COC[C@H](N)Cc1sc2c(NCc3ccco3)snc2c1Cl` [Compound 65, 7-[(R)-2-amino-3-methoxypropyl]-8-chloro-4-(furfurylamino)-3,6-dithia-2-azabicyclo[3.3.0]octa-1,4,7-triene] the same measures were 101 to 500 nM and 501 to 5000 nM.
As to `C[C@H](N)Cc1cc2nsc(NCc3cccs3)c2s1` [Compound 66, 5-[(2S)-2-aminopropyl]-N-(thiophen-2-ylmethyl)thieno[3,2-c][1,2]thiazol-3-amine], the half-inhibitory concentration (IC50) (in the test with total ATXN3 protein; in test [1]) was 10000 to 40000 nM in each case.
As for `FC(F)(F)c1csc2c(NCc3cccs3)snc12` [Compound 67, (thenyl){8-(trifluoromethyl)-3,6-dithia-2-azabicyclo[3.3.0]octa-1,4,7-trien-4-yl}amine], the IC50 (in the test with total ATXN3 protein; in test [1]) was 10000 to 40000 nM throughout.
Consider `Cc1c(C[C@@H](N)CC(F)F)sc2c(NCc3cccs3)snc12` [Compound 68, 7-[(S)-2-amino-4,4-difluorobutyl]-8-methyl-4-thenylamino-3,6-dithia-2-azabicyclo[3.3.0]octa-1,4,7-triene], for which the concentration for half-maximal inhibition (IC50) (in the test on total ATXN3 protein; in test [1]) was 10000 to 40000 nM throughout.
`N[C@H](Cc1sc2c(NCc3cccs3)snc2c1Cl)CC(F)F` [Compound 69, 7-[(S)-2-amino-4,4-difluorobutyl]-8-chloro-4-thenylamino-3,6-dithia-2-azabicyclo[3.3.0]octa-1,4,7-triene]: the 50% inhibitory concentration (IC50) (in the test with total ATXN3 protein; in test [1]) was 10000 to 40000 nM throughout.
`N[C@H](Cc1sc2c(NCc3cccs3)snc2c1Br)CC(F)F` [Compound 70, 7-[(S)-2-amino-4,4-difluorobutyl]-8-bromo-4-thenylamino-3,6-dithia-2-azabicyclo[3.3.0]octa-1,4,7-triene]: the IC50 (with total ATXN3 protein; in test [1]) was 10000 to 40000 nM throughout.
